The source of these data is ChEMBL document CHEMBL5042483, “Discovery and Mechanism of SARS-CoV-2 Main Protease Inhibitors” (J Med Chem, 2022).

The source made the active and inactive calls. No cut-off for these calls is given here.

In data set [1] the test system is SARS-CoV-2. As to the kind of experiment: Antiviral activity against SARS-CoV-2 USA_WA1/2020 infected in human Calu-3 cells assessed as reduction in viral RNA replication pretreated for 1 hr with compound followed by viral infection for 1.5 hrs then followed by washout the cells and re-incubated with compounds for 24 hrs by qRT-PCR method. Format: functional, organism-based. The conditions noted are these: Severe acute respiratory syndrome coronavirus 2, USA_WA1/2020, Calu-3.

The subject of data set [2] is Severe acute respiratory syndrome coronavirus 2. As to the kind of experiment: Reversible covalent inhibition of SARS-CoV-2 main protease expressed in Escherichia coli BL21 competent cells using DABCYL-Val-Asn-Ser-Thr-Leu-Gln-Ser-Gly-Leu-Arg-Lys-EDANS as fluorogenic substrate assessed as reduction in product formation at 1 uM preincubated for 30 mins in absence of DTT by dilution assay relative to control.

Data set [3] has the same test system. As to the kind of experiment: Competitive inhibition of SARS-CoV-2 main protease assessed as inhibitor concentration dependent Km with constant Vmax at 0.5 to 10 uM using varying concentrations of DABCYL-KTSAVLQ1SGFRKM-E(EDANS)-NH2 as substrate by double reciprocal plot analysis. The conditions noted are these: dose 0.5-10 µM.
Data set [4] has the same test system. As to the kind of experiment: Reversible covalent inhibition of SARS-CoV-2 main protease expressed in Escherichia coli BL21 competent cells using DABCYL-Val-Asn-Ser-Thr-Leu-Gln-Ser-Gly-Leu-Arg-Lys-EDANS as fluorogenic substrate assessed as reduction in product formation at 10 uM incubated for 30 mins by dilution assay relative to control.
For data set [5] the test system is unchanged. As to the kind of experiment: Reversible covalent inhibition of SARS-CoV-2 main protease expressed in Escherichia coli BL21 competent cells using DABCYL-Val-Asn-Ser-Thr-Leu-Gln-Ser-Gly-Leu-Arg-Lys-EDANS as fluorogenic substrate assessed as reduction in product formation at 10 uM preincubated for 30 mins in presence of DTT by dilution assay relative to control.

A short description of data set [6]: Distribution coefficient, logD of compound at pH 7.4 by shake flask method. It counts as physicochemical. The conditions noted are these: octanol/water.
Data set [7] can be described thus: Inhibition of GST-tagged SARS-CoV-2 main protease expressed in Escherichia coli BL21 competent cells using DABCYL-Val-Asn-Ser-Thr-Leu-Gln-Ser-Gly-Leu-Arg-Lys-EDANS as substrate measured every 10 mins for 1 hr by FRET assay. Set-up: species or system Severe acute respiratory syndrome coronavirus 2.
In data set [8] the test system is Severe acute respiratory syndrome coronavirus 2. Kind of data set: Reversible covalent inhibition of SARS-CoV-2 main protease expressed in Escherichia coli BL21 competent cells using DABCYL-Val-Asn-Ser-Thr-Leu-Gln-Ser-Gly-Leu-Arg-Lys-EDANS as fluorogenic substrate assessed as reduction in product formation at 10 uM preincubated for 30 mins in absence of DTT by dilution assay relative to control.

Data set [9] deals with SARS-CoV-2. Format: functional, organism-based, Vero E6. The conditions noted are these: Severe acute respiratory syndrome coronavirus 2, USA_WA1/2020, Vero C1008.
A short description of data set [10]: Toxicity in human iPSC derived lung organoids infected with SARS-CoV-2 USA_WA1/2020 measured after 24 hrs.
Data set [11] relates to Severe acute respiratory syndrome coronavirus 2. Kind of data set: Reversible covalent inhibition of SARS-CoV-2 main protease expressed in Escherichia coli BL21 competent cells using DABCYL-Val-Asn-Ser-Thr-Leu-Gln-Ser-Gly-Leu-Arg-Lys-EDANS as fluorogenic substrate assessed as reduction in product formation at 1 to 10 uM preincubated for 30 mins in presence of DTT by dilution assay. The conditions noted are these: dose 1-10 µM.

The test system is the same in data set [12]. Kind of data set: Reversible covalent inhibition of SARS-CoV-2 main protease expressed in Escherichia coli BL21 competent cells using DABCYL-Val-Asn-Ser-Thr-Leu-Gln-Ser-Gly-Leu-Arg-Lys-EDANS as fluorogenic substrate assessed as reduction in product formation at 1 uM incubated for 30 mins by dilution assay relative to control.
For data set [13] the test system is unchanged. As to the kind of experiment: Reversible covalent inhibition of SARS-CoV-2 main protease expressed in Escherichia coli BL21 competent cells using DABCYL-Val-Asn-Ser-Thr-Leu-Gln-Ser-Gly-Leu-Arg-Lys-EDANS as fluorogenic substrate assessed as reduction in product formation at 1 uM preincubated for 30 mins in presence of DTT by dilution assay relative to control.

Data set [14] deals with SARS-CoV-2. Kind of data set: microbe, parasite or virus in culture. The conditions noted are these: Severe acute respiratory syndrome coronavirus 2, Vero C1008, 24 h.
A short description of data set [15]: Inhibition of SARS-CoV-2 main protease expressed in Escherichia coli using MCA-AVLQSGFR-Lys(Dnp)-Lys-NH2 as substrate by FRET assay. Also noted: species or system Severe acute respiratory syndrome coronavirus 2.

One may read the EC50 as the concentration that produces a half-maximal response. Usually inhibition stands for how much of the control response was suppressed. One may read the logD as lipophilicity at a set pH, counting ionised and neutral species. Low values mean a more hydrophilic compound, high ones a more lipophilic compound. By IC50 is commonly meant the concentration that gives 50% inhibition. With `O=c1c2ccccc2[se]n1-c1ccc(C(F)(F)F)cc1`, the EC50 in data set [1] was 2.8 µM; in [9] it was 11.2 µM. For the same molecule, the inhibition in data set [2] worked out at 44%; in [4] it was 86%; in [5], 43%; in data set [8] it was 48%. The inhibition result in data set [3] is “Active”. Further, the logD in data set [6] was 3.19. Moreover, the half-inhibitory concentration (IC50) in data set [7] came to 0.9 µM.
Regarding `O=c1c2ccccc2[se]n1-c1cccc(C(F)(F)F)c1`, the EC50 in data set [1] stood at 1.3 µM; in data set [9] it was 0.8 µM. For the same molecule, the Activity result in data set [10] was “Non-Toxic”. Besides, the logD in data set [6] stood at 3.18. Besides, the IC50 in [7] amounted to 2.77 µM.
Consider `COc1cccc(-n2[se]c3ccccc3c2=O)c1`, for which, in [7], the half-maximal inhibitory concentration (IC50) is more than 10 µM. This molecule gave an EC50 in [9] of 15.1 µM.
Take `COc1ccc(Cn2[se]c3ccccc3c2=O)c(OC)c1`: the inhibition result in [11] was “Active”. This molecule also returned a logD in data set [6] of 0.85. Further, the half-inhibitory concentration (IC50) in data set [7] turned out to be 0.61 µM. Besides, the 50% effective concentration (EC50) in data set [9] was found to be 26.5 µM.
`O=c1c2ccccc2[se]n1-c1ccc(F)cc1` gave an IC50 in [7] of 2.78 µM. The concentration giving a half-maximal response (EC50) in data set [9] turned out to be 16.7 µM.
The matching figures for `Cc1ccc(-n2[se]c3ccccc3c2=O)cc1`: 2.29 µM and 15.4 µM.
The matching figures for `O=c1c2ccccc2[se]n1-c1c(F)cccc1F`: 2.09 µM and more than 20 µM.
For `CCC(CC)COC(=O)[C@H](C)NP(=O)(OC[C@H]1O[C@@](C#N)(c2ccc3c(N)ncnn23)[C@H](O)[C@@H]1O)Oc1ccccc1` (single isomer, unassigned), the EC50 in [1] was 0.8 µM; in data set [9], 1.8 µM.
Molecule `O=c1c2ccccc2[se]n1-c1ccccc1F` returned an IC50 in [7] of more than 10 µM. In addition, the half-maximal effective concentration (EC50) in [9] is more than 20 µM.
Regarding `N#Cc1cccc(-n2[se]c3ccccc3c2=O)c1`, the inhibition worked out at 29% in data set [12], 94% in data set [4] and 64% in [8]. Besides, the logD in data set [6] came out at 1.45. For the same molecule, the IC50 in [7] came out at 0.38 µM. The same molecule registered an EC50 in data set [9] of 2 µM.
On to `CCCCCCCn1[se]c2ccccc2c1=O`, for which the concentration for half-maximal inhibition (IC50) in data set [7] is 5.56 µM. Further, the EC50 in data set [9] came out at 17.3 µM.
With `CSc1ccccc1-n1[se]c2ccccc2c1=O`, the IC50 in data set [7] is more than 10 µM. The EC50 in data set [9] is more than 20 µM.
The matching figures for `COc1ccc2c(=O)n(-c3ccccc3)[se]c2c1`: 6.4 µM and 11.2 µM.
In the case of `O=c1c2ccccc2[se]n1-c1cccc(Cl)c1`, the inhibition result in data set [11] was “Active”. In data set [6], this molecule returned a logD of 1.53. This molecule returned a 50% inhibitory concentration (IC50) in data set [7] of 0.68 µM. The EC50 in data set [9] worked out at 17.4 µM.
For the molecule `CCCCCCCCn1[se]c2ccccc2c1=O`, the IC50 in data set [7] was found to be 2.69 µM. Also, the EC50 in data set [9] is more than 20 µM.
Turning to `O=c1c2ccccc2[se]n1-c1ccccc1` [EBSELEN], the EC50 in [1] was 5 µM; in data set [9] it was more than 20 µM. In addition, the values for the inhibition in data set [12], in data set [4] and in [8] were 65%, 89% and 91%, respectively. Besides, the inhibition entry in [3] is “Active”. In data set [6], this molecule came in with a logD of 0.92.
Molecule `COc1ccc(Cn2[se]c3ccccc3c2=O)cc1` registered a half-maximal inhibitory concentration (IC50) in [7] of more than 10 µM. The molecule also gave a 50% effective concentration (EC50) in data set [9] of more than 20 µM.
In the same order, the values of `COc1ccc(Cl)cc1-n1[se]c2ccccc2c1=O` are more than 10 µM and more than 20 µM.
For the molecule `O=c1c2ccccc2[se]n1-c1ccc(Cl)cc1OC(F)(F)F`, the half-inhibitory concentration (IC50) in data set [7] was more than 10 µM. For the same molecule, the EC50 in data set [9] is more than 20 µM.
Regarding `Cc1ccc(-n2[se]c3ccccc3c2=O)cc1C`, the IC50 in data set [7] is more than 10 µM. In addition, the EC50 in data set [9] came to 12.2 µM.
`O=c1c2ccccc2[se]n1-c1ccc(F)cc1C(F)(F)F` registered an IC50 in [7] of more than 10 µM. Further, the EC50 in data set [9] is more than 20 µM.
In the same order, the values of `COc1ccc(F)cc1-n1[se]c2ccccc2c1=O` are 3.3 µM and more than 20 µM.
In the same order, the values of `COc1cc(F)ccc1-n1[se]c2ccccc2c1=O` are 1.8 µM and more than 20 µM.
On to `O=c1c2ccccc2[se]n1-c1ccc(Br)cc1`, for which the concentration giving a half-maximal response (EC50) in [1] stood at 15.7 µM; in data set [9] it was 5.2 µM. Further, the logD in [6] came out at 1.46. Moreover, the IC50 in data set [7] was 2.77 µM.
In turn, `CCCCCn1[se]c2ccccc2c1=O` came in with an IC50 in [7] of more than 10 µM. The EC50 in data set [9] is more than 20 µM.
In turn, `Cc1ccccc1-n1[se]c2ccccc2c1=O` came in with an IC50 in [7] of 7.43 µM. Also, in [9], the midpoint of the response, the EC50, lay at 20.7 µM.
For the molecule `CCc1ccc(-n2[se]c3ccccc3c2=O)cc1`, the half-maximal effective concentration (EC50) in data set [1] turned out to be 8.8 µM; in data set [9], 6.5 µM. This molecule also showed a logD in [6] of 2.87. The IC50 in data set [7] was 6.18 µM.
In data set [7], `O=c1c2ccccc2[se]n1Cc1ccc(C(F)(F)F)cc1` yielded a 50% inhibitory concentration (IC50) of more than 10 µM. Moreover, in data set [9], the concentration for a half-maximal effect (EC50) worked out at 11.2 µM.
As for `O=c1c2ccccc2[se]n1-c1cc(Cl)cc(Cl)c1`, the inhibition result in [11] is “Active”. The logD in data set [6] stood at 1.67. In addition, in data set [7], the half-maximal inhibitory concentration (IC50) amounted to 0.64 µM. The molecule also came in with a 50% effective concentration (EC50) in [9] of 18.2 µM.
Take `COc1ccc(-n2[se]c3ccccc3c2=O)cc1`: in data set [7], the IC50 was determined as 1.25 µM. Moreover, the response in data set [9] was half-maximal at 1.7 µM (EC50).
Regarding `O=c1c2ccccc2[se]n1Cc1ccc(F)cc1`, the inhibition in data set [13] came out at 53%. Besides, the IC50 in [7] came out at 1 µM. The same molecule returned an EC50 in data set [9] of more than 20 µM.
In the case of `O=C[C@H](C[C@@H]1CCNC1=O)NC(=O)[C@H](Cc1cccc(F)c1)NC(=O)c1cc2ccccc2[nH]1`, a half-maximal effect in data set [14] (EC50) was put at 0.72 µM. This molecule displayed an IC50 in data set [15] of 0.04 µM.
